Eight molecules from patent US5686421A, “Hydantoin derivates” (Hoechst Aktiengesellschaft, priority 1990, dated 1997) can be followed below.

The test system of this assay is human GFP (gel-filtered platelets). Put plainly: Inhibition of platelet aggregation, human gel-filtered platelets stimulated with ADP or thrombin. The assay is classed as cell-based. An excerpt:
The compounds are particularly tested for their inhibitory action on the aggregation of blood platelets and the adhesion of fibrinogen to blood platelets. Gel-filtered blood platelets from donated human blood are used and are activated with ADP or thrombin.
Inhibition of platelet aggregation to human GFP (gel-filtered platelets) stimulated with adenosine diphosphate (ADP) or thrombin (THR) (Marguerie, Plow and Edgington, J. Biol. Chem. 254 (1979) 5357-5363)

[1] abbreviates: human GFP stimulated with adenosine diphosphate (ADP), read-out: IC50 (μM) ADP.
Where [2] appears, read: human GFP stimulated with thrombin (THR), read-out: IC50 (μM) THR.

Like-named read-outs stand apart in the source and are kept apart here.

Regarding `N=C(N)NCCC[C@H](N)C(=O)NCC(=O)N[C@@H](CC(=O)O)C(N)=O` [HArgGlyAspNH2], the IC50 runs as follows: under setting [1], 500 µM; under setting [2], 200 µM.

As to `N=C(N)NCCC[C@@H](N)C(=O)NCC(=O)N[C@@H](CC(=O)O)C(N)=O` [HDArgGlyAspNH2], the IC50 under setting [1] amounted to 500 µM and the IC50 under setting [2] was 100 µM.

As to `N=C(N)NCCC[C@H]1NC(=O)N(CC(=O)N[C@@H](CC(=O)O)C(N)=O)C1=O` [[5-(R)-(3-guanidino-propyl)-2,4-dioxo-imidazolidin-3-yl]acetyl-L-Asp-amide], the IC50 was found to be 20 µM under setting [1] and 15 µM under setting [2].

Take `COc1ccc(C(NC(=O)[C@H](CC(=O)O)NC(=O)CN2C(=O)N[C@H](CCCN=C(N)N)C2=O)c2ccc(OC)cc2)cc1` [[5-(R)-(3-guanidino-propyl)-2,4-dioxo-imidazolin-3-yl]acetyl Asp 4,4'-dimethoxybenzhydrylamide]: the IC50 is, setting by setting: under setting [1], 4 µM; under setting [2], 3 µM.

For `COc1ccc(C(NC(=O)[C@H](CC(=O)O)NC(=O)CN2C(=O)N[C@@H](CCCN=C(N)N)C2=O)c2ccc(OC)cc2)cc1` [[5-(S)-(3-guanidino-propyl)-2,4-dioxo-imidazolidin-3-yl]acetyl-Asp 4,4'-dimethoxybenzhydrylamide], the IC50 is 10 µM under setting [1] and 4 µM under setting [2].

In the case of `NC(=O)[C@H](CC(=O)O)NC(=O)CN1C(=O)N[C@@H](CCCN=C(N)N)C1=O` [[5-(S)-(3-guanidinopropyl)-2,4-dioxo-imidazolidin-3-yl]acetyl-Asp-amide], the IC50 was 40 µM under setting [1] and 40 µM under setting [2].

Take ZDArgGlyAspNH2: the IC50 under setting [1] was determined as 100 µM and the IC50 under setting [2] was found to be 80 µM.

Take ZDArgGlyAspNHMbh: the IC50 by setting is: under setting [1], 20 µM; under setting [2], 20 µM.
